From patent publication US20240002416A1 (Rheinische-Friedrich-Wilhelms-Universität Bonn, priority 2020, published 2024) come the findings set out here.

In series [1] the target is T1, MRGPRX4-83S (Homo sapiens, UniProt Q96LA9, L83S). Description: β-arrestin assay (CHO β-arrestin human MRGPRX4-83S). The format is cell-based. Further details: host or cells: CHO β-arrestin cells. Particulars: for Emax: efficacy based on 100 nM B-16 (set as 100%), read-out: Emax; for EC50: β-arrestin recruitment, CHO cells, MRGPRX4-83S, read-out: EC50 ± SEM. The gist of the method: (§1)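 β-Galactosidase enzyme-fragment complementation in engineered CHO lines expressing human MRGPRX4 reported β-arrestin recruitment. Intracellular calcium was followed in astrocytes engineered with the 83L variant or in LN229 cells endogenously carrying the 83S variant.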
T1 sequence (Q96LA9 whole entry L83S, the tested form may be a part): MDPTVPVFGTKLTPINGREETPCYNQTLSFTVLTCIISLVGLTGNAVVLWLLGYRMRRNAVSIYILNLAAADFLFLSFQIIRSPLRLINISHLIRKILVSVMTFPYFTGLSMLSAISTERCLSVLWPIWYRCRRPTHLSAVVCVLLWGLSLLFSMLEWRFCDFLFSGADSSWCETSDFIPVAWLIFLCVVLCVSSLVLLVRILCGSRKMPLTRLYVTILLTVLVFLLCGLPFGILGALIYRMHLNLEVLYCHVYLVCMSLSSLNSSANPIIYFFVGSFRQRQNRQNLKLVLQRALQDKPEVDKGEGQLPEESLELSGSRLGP
(Arrestin recruitment assays detect the binding of arrestin to an activated receptor.)

In series [2] the target is T1, MRGPRX4-83S. The experiment in a line: Calcium assay (human glioblastoma LN229 cells expressing the MRGPRX4-83S). Type of series: cell-based. Also noted: LN229 glioblastoma cells natively expressing the MRGPRX4-83S; endogenous in cells; host or cells: LN229 human glioblastoma cells. Particulars: for EC50: Table 3, calcium mobilization, LN229 cells, MRGPRX4-83S, read-out: EC50 ± SEM. Here is the method: For β-arrestin recruitment assays, recombinant Chinese hamster ovary (CHO) cells expressing the human MRGPRX4 were used (DiscoverX/Eurofins) which allowed to measure β-galactosidase complementation upon β-arrestin recruitment. For calcium mobilization assays, recombinant astrocytes expressing MRGPX4-83L, or LN229 glioblastoma cells natively expressing the MRGPRX4-83S, were used.
The assays were performed as previously described for other rhodopsin-like GPCRs (Müller, C.E.; 8-Benzamidochromen-4-one-2-carboxylic acids: potent and selective agonists for the orphan G protein-coupled receptor GPR35. J. Med. Chem. 2013, 56:5182-97; Müller, C.E. Molecular Recognition of Agonists and Antagonists by the Nucleotide-Activated G Protein-Coupled P2Y2 Receptor. J. Med. Chem. 2017, 60:8425-8440).
A general note: Calcium flux is commonly read through the fluorescence of an indicator in the cells.

The target in series [3] is T2, human MRGPRX4-83L (Homo sapiens, UniProt Q96LA9).
T2 construct: host or cells: CHO β-arrestin cells
T2 sequence (Q96LA9 whole entry): as the sequence (Q96LA9 whole entry L83S, the tested form may be a part) above, with S83L counted along it
Description: β-arrestin assay (CHO β-arrestin ARMS1-ProLink 2 human MRGPRX4 83L). The format is cell-based. To be noted: Table 1; for IC50: inhibition of the effect of 2.6 μM B-16; for EC50: β-arrestin recruitment, CHO cells, MRGPRX4-83L, means of 3-4 experiments, read-out: EC50 ± SEM. The gist of the method:
as §1

For series [4], the target named is T2, human MRGPRX4-83L. The experiment in a line: Calcium assay (human MRGPRX4 83L), recombinant astrocytes. To be noted: for EC50 / Emax: Table 1; for EC50: calcium mobilization, MRGPRX4-83L, read-out: EC50 ± SEM; for Emax: efficacy based on maximal effect of 1 μM B-16 (set as 100%), read-out: Emax. The format is cell-based. The gist of the method:
as §1

Read-outs that look alike come from different tables or passages of the source.

Broadly, the melting point is the temperature of the solid-liquid transition. A word on the Emax: it is the maximal effect, on the per cent scale that the assay sets. Usually EC50 stands for the concentration needed to bring the measured effect to its halfway point. The molecule `C#CCn1c(=O)c2c(nc(CCc3ccc(C(C)C)cc3)n2CC2CCCC2)n(CCCCP(=O)(O)O)c1=O` [B-43, (4-(7-(cyclopentylmethyl)-8-(4-isopropylphenethyl)-2,6-dioxo-1-(prop-2-yn-1-yl)-1,2,6,7-tetra-hydro-3H-purin-3-yl)butyl)phosphonic acid] had a melting point of 125 to 127 °C. Also, at MRGPRX4-83S [1] (Table 3), the Emax was determined as 53% and the EC50 turned out to be 0.0107 ± 0.0071 µM. The EC50 on MRGPRX4-83S [2] is more than 10 µM.
`C#CCn1c(=O)c2[nH]c(CCc3ccccc3Br)nc2n(CCCCCC(=O)O)c1=O` [G-3, 6-(8-(2-Bromophenethyl)-2,6-dioxo-1-(prop-2-yn-1-yl)-1,2,6,7-tetrahydro-3H-purin-3-yl) hexanoic acid] registered a melting point of 192 to 194 °C. Also, the EC50 at MRGPRX4-83S [1] (Table 3) is more than 100 µM. The EC50 on MRGPRX4-83S [2] is more than 10 µM.
What is called IC50 is the concentration at which inhibition is half-maximal. The molecule `C#CCn1c(=O)c2c(nc(CCc3ccc(-c4ccccc4)cc3)n2CC2CCCC2)n(CCCCP(=O)(O)O)c1=O` [B-44, (4-(8-(2-([1,1′-biphenyl]-4-yl)ethyl)-7-(cyclopentylmethyl)-2,6-dioxo-1-(prop-2-yn-1-yl)-1,2,6,7-tetrahydro-3H-purin-3-yl)butyl)phosphonic acid] came in with a melting point of 156 to 158 °C. For the same molecule, at MRGPRX4-83S [1] (Table 3), the Emax worked out at 43% and the EC50 was found to be 0.00212 ± 0.00085 µM. In addition, at MRGPRX4-83S [2], the IC50 amounted to 0.0873 ± 0.012 nM and the EC50 was more than 10 µM.
As for `O=C(O)CCCCn1c(=O)n(CC2CCC2)c(=O)c2[nH]c(CCc3cccc(C(F)(F)F)c3)nc21` [G-2, 5-(1-(Cyclobutylmethyl)-2,6-dioxo-8-(3-(trifluoromethyl)phenethyl)-1,2,6,7-tetrahydro-3H-purin-3-yl)pentanoic acid], the melting point lay within 210 to 212 °C. On human MRGPRX4-83L [3], the IC50 was more than 10 µM and the EC50 was more than 10 µM. Moreover, the EC50 at MRGPRX4-83S [1] (Table 2) was more than 10 µM. Further, on human MRGPRX4-83L [4], the IC50 was more than 10 µM and the concentration giving a half-maximal response (EC50) was more than 10 µM.
Molecule `C#CCn1c(=O)c2[nH]c(CCc3ccc(OC)c(OC)c3)nc2n(CCCCP(=O)(O)O)c1=O` [B-11, (4-(8-(3,4-Dimethoxyphenethyl)-2,6-dioxo-1-(prop-2-yn-1-yl)-1,2,6,7-tetrahydro-3H-purin-3-yl)butyl)phosphonic acid] gave a melting point of 254 to 256 °C. Also, on human MRGPRX4-83L [3], the IC50 was determined as 50.5 ± 1.4 µM and the EC50 was more than 10 µM. In addition, inhibition against MRGPRX4-83S [1] was half-maximal at 9.72 ± 1.05 µM (IC50). Also, at human MRGPRX4-83L [4], the EC50 was found to be 28 ± 3.3 µM and the Emax is 100%.
In the case of `C#CCn1c(=O)c2[nH]c(CCc3ccccc3Cl)nc2n(CCCCP(=O)(O)O)c1=O` [B-9, (4-(8-(2-Chlorophenethyl)-2,6-dioxo-1-(prop-2-yn-1-yl)-1,2,6,7-tetrahydro-3H-purin-3-yl)butyl)phosphonic acid], the melting point is 207 to 209 °C. For the same molecule, the Emax at human MRGPRX4-83L [3] (efficacy based on maximal effect of 100 nM B-16 (set as 100%), read-out: Emax) worked out at 107%. In addition, the EC50 on human MRGPRX4-83L [3] was 1.26 ± 0.27 µM. For the same molecule, at MRGPRX4-83S [1] (Table 2), the maximum response (Emax) was 116% and the EC50 turned out to be 0.00345 ± 0.00028 µM. For the same molecule, on human MRGPRX4-83L [4], the EC50 was 0.0552 ± 0.0017 µM and the maximal effect (Emax) came to 107%.
`CCn1c(=O)c2[nH]c(CCc3cccc(OC)c3)nc2n(CCCCS(=O)(=O)O)c1=O` [E-2, 4-(1-Ethyl-8-(3-methoxyphenethyl)-2,6-dioxo-1,2,6,7-tetrahydro-3H-purin-3-yl)butane-1-sulfonic acid] displayed a melting point of 179 to 181 °C. Further, at human MRGPRX4-83L [3], the half-maximal inhibitory concentration (IC50) was more than 10 µM and the EC50 is more than 10 µM. The EC50 at MRGPRX4-83S [1] (Table 2) is more than 10 µM. For the same molecule, on human MRGPRX4-83L [4], the IC50 is more than 10 µM and the EC50 is more than 10 µM.
On to `C#CCn1c(=O)c2[nH]c(CCc3ccccc3Br)nc2n(CCCCS(N)(=O)=O)c1=O` [F-1, 4-(8-(2-Bromophenethyl)-2,6-dioxo-1-(prop-2-yn-1-yl)-1,2,6,7-tetrahydro-3H-purin-3-yl)butane-1-sulfonamide], for which the melting point lay in the range of 216 to 219 °C. Moreover, at human MRGPRX4-83L [3], the IC50 is more than 10 µM and the EC50 is more than 10 µM. Also, the EC50 at MRGPRX4-83S [1] (Table 2) was more than 10 µM. Besides, at human MRGPRX4-83L [4], the half-maximal inhibitory concentration (IC50) is more than 10 µM and the concentration for a half-maximal effect (EC50) is more than 10 µM.
